The results in this text go back to US12116358B2, “Substituted indoles and methods of use thereof” (EPIZYME, INC., priority 2018, dated 2024).

One test concerns H3K36me3 in A549 cells. Nature of the test: In-Cell Western (ICW) assay of SETD2 inhibitors (A549 assay). The test is classed as cell-based, human. The following applies: A549 cells, read-out: SETD2 A549. Summed up:
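H3K36me3 In-Cell Western: cells exposed to compound for 3 days at 4,000 cells/well, 37° C. DRAQ5 (1:1000) marked cell number, with 700/800-channel Licor read-out.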

Another test has as its target T1, SETD2(1434-1711) (Homo sapiens, UniProt Q9BYW2).
T1 construct: SETD2 (1434-1711) Assay; catalogue N/A
T1 sequence (Q9BYW2 1434-1711): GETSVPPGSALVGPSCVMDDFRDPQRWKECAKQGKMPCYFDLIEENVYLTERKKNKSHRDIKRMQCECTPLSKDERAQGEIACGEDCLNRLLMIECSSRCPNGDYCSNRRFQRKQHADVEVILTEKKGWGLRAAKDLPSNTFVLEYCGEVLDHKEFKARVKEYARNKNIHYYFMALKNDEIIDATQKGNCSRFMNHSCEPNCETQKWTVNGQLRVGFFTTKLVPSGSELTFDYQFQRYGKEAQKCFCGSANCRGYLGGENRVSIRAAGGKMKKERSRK
Nature of the test: SETD2 (1434-1711) assay. The test is classed as biochemical. As to conditions: read-out: SETD2 (1434-1711).

Read-outs that look alike come from different tables or passages of the source.

Regarding `Cc1ccc(F)c2cc(C(=O)Nc3cccc(-c4cccc(CN(C)C)c4)c3)[nH]c12` [compound 266], the IC50 in the test with H3K36me3 in A549 cells (Homo sapiens) is 700 nM; on SETD2(1434-1711) it was 60 nM.

As for `CC(=O)N1CCC(C(N)=O)(c2cc(F)cc(NC(=O)c3cc4c(F)ccc(C)c4[nH]3)c2)CC1` [compound 267], the results for the IC50 in the test on H3K36me3 in A549 cells (Homo sapiens) and at SETD2(1434-1711) were 700 nM and 10 nM, respectively.

For the compound `Cc1ccc(F)c2cc(C(=O)Nc3cccc(N4CCC(O)(C5CCN(C)CC5)CC4)c3)[nH]c12` [compound 268], the IC50 in the test with H3K36me3 in A549 cells (Homo sapiens) stood at 700 nM; on SETD2(1434-1711) it was 60 nM.

For `COc1ccnc(C(NC(=O)c2cc3c(F)ccc(C)c3[nH]2)C2CC2)c1C` (stereo not shown) [compound 269], the figures for the IC50 with H3K36me3 in A549 cells (Homo sapiens) and at SETD2(1434-1711) were 700 nM and 100 nM, respectively.

On to `Cc1ccc(NC(=O)c2cc3c(F)ccc(C)c3[nH]2)cc1N1CCN(C)CC1` [compound 270], for which the IC50 with H3K36me3 in A549 cells (Homo sapiens) came out at 800 nM; on SETD2(1434-1711), 50 nM.

As to `CC(=O)N1CCN(c2cc(F)cc(NC(=O)c3cc4c(F)cccc4[nH]3)c2)CC1` [compound 271], the IC50 worked out at 800 nM with H3K36me3 in A549 cells (Homo sapiens) and 200 nM at SETD2(1434-1711).

On to `Cc1ccc(F)c2cc(C(=O)Nc3cccc(-c4cccc5nccn45)c3)[nH]c12` [compound 272], for which the IC50 in the test on H3K36me3 in A549 cells (Homo sapiens) is 800 nM; at SETD2(1434-1711) it was 100 nM.

Regarding `Cc1cc(Cn2cc[nH]c2=O)cnc1C(NC(=O)c1cc2c(F)ccc(C)c2[nH]1)C1CC1` (stereo not shown) [compound 273], the IC50 with H3K36me3 in A549 cells (Homo sapiens) turned out to be 800 nM; on SETD2(1434-1711) it was 200 nM.

Regarding `Cc1ccc(F)c2cc(C(=O)Nc3cc(CF)cc(N4CCC(N(C)C)CC4)c3)[nH]c12` [compound 274], the IC50 was 800 nM in the test on H3K36me3 in A549 cells (Homo sapiens) and 40 nM at SETD2(1434-1711).

Take `Cc1ccc(F)c2cc(C(=O)Nc3cccc(-n4cnc(CN(C)C)n4)c3)[nH]c12` [compound 276]: the IC50 came out at 900 nM with H3K36me3 in A549 cells (Homo sapiens) and 90 nM at SETD2(1434-1711).

In the case of `Cc1ccc(F)c2cc(C(=O)Nc3cccc(N4CCN(C)CC4CO)c3)[nH]c12` (stereo not shown) [compound 277], the IC50 with H3K36me3 in A549 cells (Homo sapiens) worked out at 900 nM; on SETD2(1434-1711), 200 nM.

Turning to `Cc1ccc(F)c2cc(C(=O)Nc3cccc(-c4ccc5cncn5c4)c3)[nH]c12` [compound 278], the IC50 worked out at 900 nM with H3K36me3 in A549 cells and 70 nM at SETD2(1434-1711).

As for `Cc1ccc(F)c2cc(C(=O)Nc3cccc(N4CCCN(C)CC4)c3)[nH]c12` [compound 279], the IC50 stood at 900 nM in the test on H3K36me3 in A549 cells (Homo sapiens) and 40 nM at SETD2(1434-1711).

Regarding `Cc1ccc(F)c2cc(C(=O)Nc3cccc(N4CCN(C(C)C)CC4C)c3)[nH]c12` (stereo not shown) [compound 280], the IC50 in the test with H3K36me3 in A549 cells (Homo sapiens) was determined as 900 nM; at SETD2(1434-1711), 100 nM.

In the case of `Cc1ccc(F)c2cc(C(=O)Nc3cccc(-n4cnnc4)c3)[nH]c12` [compound 281], the IC50 was 900 nM in the test on H3K36me3 in A549 cells (Homo sapiens) and 200 nM on SETD2(1434-1711).

As for `Cc1ccc(F)c2cc(C(=O)Nc3cccc(C4CCC(N(C)C)C4)c3)[nH]c12` (stereo not shown) [compound 282], the IC50 with H3K36me3 in A549 cells (Homo sapiens) turned out to be 1000 nM; at SETD2(1434-1711), 40 nM.

Regarding `Cc1ccc(F)c2cc(C(=O)Nc3cccc(C4CCNC4)c3)[nH]c12` (stereo not shown) [compound 283], the IC50 with H3K36me3 in A549 cells (Homo sapiens) stood at 1000 nM; on SETD2(1434-1711), 40 nM.

As to `Cc1ccc(F)c2cc(C(=O)Nc3cccc(N4CC5CC4CO5)c3)[nH]c12` (stereo not shown) [compound 284], the IC50 stood at 1000 nM in the test with H3K36me3 in A549 cells (Homo sapiens) and 200 nM on SETD2(1434-1711).

Take `Cc1ccc(F)c2cc(C(=O)Nc3cccc(-c4ccccn4)c3)[nH]c12` [compound 285]: the results for the IC50 with H3K36me3 in A549 cells (Homo sapiens) and at SETD2(1434-1711) were 1000 nM and 40 nM, respectively.

With `Cc1ccc(F)c2cc(C(=O)Nc3cccc(-c4cn5ccccc5n4)c3)[nH]c12` [compound 286], the IC50 with H3K36me3 in A549 cells (Homo sapiens) came to 1000 nM; on SETD2(1434-1711) it was 100 nM.

Turning to `Cc1ccc(F)c2cc(C(=O)Nc3cccc(N4CCOC5(CC5)C4)c3)[nH]c12` [compound 287], the IC50 in the test with H3K36me3 in A549 cells (Homo sapiens) stood at 1000 nM; on SETD2(1434-1711) it was 200 nM.

As to `CNC(=O)CCCc1cccc(NC(=O)c2cc3c(F)ccc(C)c3[nH]2)c1` [compound 288], the IC50 was determined as 1000 nM with H3K36me3 in A549 cells and 300 nM at SETD2(1434-1711).

In the case of `Cc1ccc(F)c2cc(C(=O)Nc3cccc(N4CC(C)OCC4C)c3)[nH]c12` (stereo not shown) [compound 289], the IC50 came out at 1100 nM with H3K36me3 in A549 cells (Homo sapiens) and 400 nM on SETD2(1434-1711).
